Drawing on patent US20050197350A1, “Novel quinoline, tetrahydroquinazoline, and pyrimidine derivatives and methods of treatment related to the use thereof” (TAISHO PHARMACEUTICAL CO., LTD., priority 2003, published 2005), this text covers class for 35 compounds.

For one assay, the system named is MCH receptors. The experiment in a line: MCH receptor activity class (method not given). Particulars: MCH receptor activity class 1-3 (percent of control at 10^-7 M or IC50).
Turning to `Cc1cccc(Cl)c1NC(=O)NC[C@H]1CC[C@@H](Nc2nc3c(c(N(C)C)n2)CCCC3)CC1` [compound 2466, N-(2-chloro-6-methylphenyl)-N′-[(cis-4-{[4-(dimethylamino)-5,6,7,8-tetrahydroquinazolin-2-yl]amino}cyclohexyl)methyl]urea], the class is 1 (Class 1: The value of percent of control at 10^−7 M was less than 40% or the value of IC50 was less than 50 nM.). As to `CN(C)c1ccnc(N[C@H]2CC[C@@H](CNC(=O)Nc3c(Cl)cccc3Cl)CC2)n1` [compound 2445], the class was 1 (Class 1: The value of percent of control at 10^−7 M was less than 40% or the value of IC50 was less than 50 nM.). Same read-out and setting: with `COc1ccc(NC(=S)N[C@H]2CC[C@@H](Nc3cc(N(C)C)c4ccccc4n3)CC2)c(C)c1` [compound 2296] the figure was 3 (Class 3 The value of percent of control at 10^−7 M was more than 60% or the value of IC50 was more than 200 nM.). On to `Cc1cc(C)c(NC(=O)NC[C@H]2CC[C@@H](Nc3nc4c(c(N(C)C)n3)CCCC4)CC2)c(C)c1` [compound 2459], for which the class is 1 (Class 1: The value of percent of control at 10^−7 M was less than 40% or the value of IC50 was less than 50 nM.).

The same assay, now with this note: MCH receptor; class by percent of control at 10^-7 M or IC50.
For the compound `CN(C)c1nc(N[C@H]2CC[C@@H](NC(=S)Nc3ccc(Oc4ccccc4)cc3)CC2)nc2c1CCCC2` [compound 2053], the class was 3 (Class 3 The value of percent of control at 10^−7 M was more than 60% or the value of IC50 was more than 200 nM.). Still for that read-out and setting: with `CN(C)c1cc(N[C@H]2CC[C@@H](NC(=O)c3cccc(C(F)(F)F)c3)CC2)nc2ccccc12` [compound 116] the figure was 3 (Class 3 The value of percent of control at 10^−7 M was more than 60% or the value of IC50 was more than 200 nM.).

The assay is the same for the next values; noted with them: activity class 1-3: percent of control at 10^-7 M or IC50.
On to `CN(C)c1nc(N[C@H]2CC[C@@H](CNC(=O)OCC(C)(C)C)CC2)nc2c1CCCC2` [compound 1600], for which the class was 3 (Class 3 The value of percent of control at 10^−7 M was more than 60% or the value of IC50 was more than 200 nM.).

With `CN(C)c1nc(N[C@H]2CC[C@@H](NC(=O)Nc3ccc(Cl)cc3C(F)(F)F)CC2)nc2c1CCCC2` [compound 1687], the class is 3 (Class 3 The value of percent of control at 10^−7 M was more than 60% or the value of IC50 was more than 200 nM.). As for `CC(C)[C@@H]1CC[C@@H](C)CC1OC(=O)NC[C@H]1CC[C@@H](Nc2nccc(N(C)C)n2)CC1` (some centres unmarked) [compound 1653], the class is 3 (Class 3 The value of percent of control at 10^−7 M was more than 60% or the value of IC50 was more than 200 nM.).

Staying with this assay, now noted: activity class per percent of control at 10^-7 M or IC50.
Take `CN(C)c1cc(N[C@H]2CC[C@@H](NCc3c[nH]c4ccc(Br)cc34)CC2)nc2ccccc12` [compound 1093]: the class is listed as 3 (Class 3 The value of percent of control at 10^−7 M was more than 60% or the value of IC50 was more than 200 nM.). Still for that read-out and setting: for `CN(C)c1nc(N[C@H]2CC[C@@H](CNC(=O)c3cn(Cc4ccccc4)c4ccccc34)CC2)nc2c1CCCC2` [compound 1078] the value was 3 (Class 3 The value of percent of control at 10^−7 M was more than 60% or the value of IC50 was more than 200 nM.). On to `CN(C)c1cc(N[C@H]2CC[C@@H](CNCc3c[nH]c4ccccc34)CC2)nc2ccccc12` [compound 1124], for which the class is reported as 3 (Class 3 The value of percent of control at 10^−7 M was more than 60% or the value of IC50 was more than 200 nM.).

The same assay, now with this note: class 1-3 by percent of control at 10^-7 M or IC50.
On to `CN(C)c1nc(N[C@H]2CC[C@@H](NC(=O)c3cc(C(C)(C)C)nn3C)CC2)nc2c1CCCC2` [compound 522], for which the class is recorded as 3 (Class 3 The value of percent of control at 10^−7 M was more than 60% or the value of IC50 was more than 200 nM.). Turning to `CCSc1ncccc1C(=O)NC[C@H]1CC[C@@H](Nc2nc3c(c(N(C)C)n2)CCCC3)CC1` [compound 598], the class is on record as 1 (Class 1: The value of percent of control at 10^−7 M was less than 40% or the value of IC50 was less than 50 nM.). Consider `CCOc1ccccc1C(=O)N[C@H]1CC[C@@H](Nc2nc3c(c(N(C)C)n2)CCCC3)CC1` [compound 508], for which the class is listed as 3 (Class 3 The value of percent of control at 10^−7 M was more than 60% or the value of IC50 was more than 200 nM.). The same measure, in the same setting: for `CCOc1ccc2ccccc2c1C(=O)N[C@H]1CC[C@@H](Nc2nc3c(c(N(C)C)n2)CCCC3)CC1` [compound 565] the value was 3 (Class 3 The value of percent of control at 10^−7 M was more than 60% or the value of IC50 was more than 200 nM.); for `CN(C)c1nc(N[C@H]2CC[C@@H](NC(=O)COCc3ccccc3)CC2)nc2c1CCCC2` [compound 531, 2-(benzyloxy)-N-(cis-4-{[4-(dimethylamino)-5,6,7,8-tetrahydroquinazolin-2-yl]amino}cyclohexyl)acetamide], 2 (Class 2: The value of percent of control at 10^−7 M was from 40% to 60% or the value of IC′50 was from 50 nM to 200 nM.). The same measure, in the same setting: for `CN(C)c1nc(N[C@H]2CC[C@@H](NC(=O)C(C)(C)Oc3ccc(Cl)cc3)CC2)nc2c1CCCC2` [compound 575] the value was 3 (Class 3 The value of percent of control at 10^−7 M was more than 60% or the value of IC50 was more than 200 nM.).

The assay is the same for the next values; noted with them: class by percent of control at 10^-7 M or IC50.
On to `CSc1sc(C(=O)N[C@H]2CC[C@@H](Nc3nccc(N(C)C)n3)CC2)c(Cl)c1S(=O)(=O)C(C)C` [compound 904, 3-chloro-N-(cis-4-{[4-(dimethylamino)pyrimidin-2-yl]amino}cyclohexyl)-4-(isopropylsulfonyl)-5-(methylthio)thiophene-2-carboxamide], for which the class is given as 2 (Class 2: The value of percent of control at 10^−7 M was from 40% to 60% or the value of IC′50 was from 50 nM to 200 nM.). For `COc1cc(CNC[C@H]2CC[C@@H](Nc3nccc(N(C)C)n3)CC2)cc(OC)c1OC` [compound 1257], the class is listed as 2 (Class 2: The value of percent of control at 10^−7 M was from 40% to 60% or the value of IC′50 was from 50 nM to 200 nM.). Same read-out and setting: with `Cc1cc([N+](=O)[O-])ccc1NC(=O)N[C@H]1CC[C@@H](Nc2nccc(N(C)C)n2)CC1` [compound 2234] the figure was 3 (Class 3 The value of percent of control at 10^−7 M was more than 60% or the value of IC50 was more than 200 nM.). Still for that read-out and setting: with `CN(C)c1nc(N[C@H]2CC[C@@H](NC(=O)NCc3ccc(Cl)c(Cl)c3)CC2)nc2c1CCCC2` [compound 1867] the figure was 3 (Class 3 The value of percent of control at 10^−7 M was more than 60% or the value of IC50 was more than 200 nM.); with `CN(C)c1cc(N[C@H]2CC[C@@H](CNC(=O)/C=C/c3cccc([N+](=O)[O-])c3)CC2)nc2ccccc12` [compound 797], 2 (Class 2: The value of percent of control at 10^−7 M was from 40% to 60% or the value of IC′50 was from 50 nM to 200 nM.). Regarding `CCc1ccccc1CNC[C@H]1CC[C@@H](Nc2nc3c(c(N(C)C)n2)CCCC3)CC1` [compound 1443], the class was 3 (Class 3 The value of percent of control at 10^−7 M was more than 60% or the value of IC50 was more than 200 nM.). As to `CN(C)c1nc(N[C@H]2CC[C@@H](NC(=O)Nc3ccc(C(F)(F)F)cc3Cl)CC2)nc2c1CCCC2` [compound 1853], the class is recorded as 3 (Class 3 The value of percent of control at 10^−7 M was more than 60% or the value of IC50 was more than 200 nM.).

On to `CN(C)c1nc(N[C@H]2CC[C@@H](NC(=O)Nc3cccc(SC(F)(F)F)c3)CC2)nc2c1CCCC2` [compound 1866], for which the class is given as 3 (Class 3 The value of percent of control at 10^−7 M was more than 60% or the value of IC50 was more than 200 nM.).

`CN(C)c1nc(N[C@H]2CC[C@@H](CNC(=O)Nc3c(Br)cc(F)cc3Br)CC2)nc2c1CCCC2` [compound 2490, N-(2,6-dibromo-4-fluorophenyl)-N′-[(cis-4-{[4-(dimethylamino)-5,6,7,8-tetrahydroquinazolin-2-yl]amino}cyclohexyl)methyl]urea]: the class is 1 (Class 1: The value of percent of control at 10^−7 M was less than 40% or the value of IC50 was less than 50 nM.). For `CN(C)c1cc(N[C@H]2CC[C@@H](NC(=O)Nc3ccc(F)cc3)CC2)nc2ccccc12` [compound 2094], the class is 3 (Class 3 The value of percent of control at 10^−7 M was more than 60% or the value of IC50 was more than 200 nM.). On the same count and under the same terms, with `COc1cccc(CC(=O)NC[C@H]2CC[C@@H](Nc3nccc(N(C)C)n3)CC2)c1` [compound 412] the figure was 2 (Class 2: The value of percent of control at 10^−7 M was from 40% to 60% or the value of IC′50 was from 50 nM to 200 nM.); with `CN(C)c1nc(N[C@H]2CC[C@@H](NC(=O)Nc3ccc(Br)cc3C(F)(F)F)CC2)nc2c1CCCC2` [compound 1722], 3 (Class 3 The value of percent of control at 10^−7 M was more than 60% or the value of IC50 was more than 200 nM.). Still for that read-out and setting: for `Cc1c(NC(=O)N[C@H]2CC[C@@H](Nc3nccc(N(C)C)n3)CC2)cccc1[N+](=O)[O-]` [compound 2201] the value was 3 (Class 3 The value of percent of control at 10^−7 M was more than 60% or the value of IC50 was more than 200 nM.). On the same count and under the same terms, for `CN(C)c1nc(N[C@H]2CC[C@@H](NC(=S)Nc3ccc(N(C)C)c4ccccc34)CC2)nc2c1CCCC2` [compound 1747] the value was 2 (Class 2: The value of percent of control at 10^−7 M was from 40% to 60% or the value of IC′50 was from 50 nM to 200 nM.); for `CN(C)c1ccnc(N[C@H]2CC[C@@H](NC(=O)CCc3ccc(Cl)c(Cl)c3)CC2)n1` [compound 837], 3 (Class 3 The value of percent of control at 10^−7 M was more than 60% or the value of IC50 was more than 200 nM.).

Still in this assay, the particulars now being: class by percent of control at 10^−7 M or IC50.
In the case of `Cc1cnc(N[C@H]2CC[C@@H](C(=O)Nc3cccc(Cl)c3)CC2)nc1N(C)C` [compound 2788, cis-N-(3-chlorophenyl)-4-{[4-(dimethylamino)-5-methylpyrimidin-2-yl]amino}cyclohexanecarboxamide], the class is reported as 1 (Class 1: The value of percent of control at 10^−7 M was less than 40% or the value of IC50 was less than 50 nM.).

Consider `Cc1nc(C(=O)N[C@H]2CC[C@@H](Nc3nc(C)c(C)c(N(C)C)n3)CC2)co1` [compound 2830, N-(cis-4-{[4-(dimethylamino)-5,6-dimethylpyrimidin-2-yl]amino}cyclohexyl)-2-methyl-1,3-oxazole-4-carboxamide], for which the class is 2 (Class 2: The value of percent of control at 10^−7 M was from 40% to 60% or the value of IC′50 was from 50 nM to 200 nM.).
